Measured values as given in PubChem BioAssay AID1259411 (Chemical Carcinogenesis Research Information System (CCRIS), 2018).
Calls of active or inactive are those of the source. The rule behind the calls is not given here.

Tested on: rodent carcinogenicity bioassays, tumor incidence
Assay: CCRIS carcinogenicity studies
In short: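 Archive of carcinogenicity, mutagenicity, tumor promotion and tumor inhibition results drawn from journals, NCI reports and other sources, expert-reviewed; covers 1985-2011 and is no longer updated.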

CNC(=O)Oc1cccc2c1OC(C)(C)C2
carcinogen call (Species: MOUSE, Strain/Sex: ICR/FEMALE, Route: ORAL, Dose: 0, 3, 8 PPM IN DRINKING WATER FOR 12 MO (STUDY DURATION: 12 MO), Dose: 0, 3, 8 PPM IN DRINKING WATER FOR 12 MO (STUDY DURATION: 12 MO)): inactive; negative
carcinogen call (Species: MOUSE, Strain/Sex: ICR/MALE, Route: ORAL, Dose: 0, 3, 8 PPM IN DRINKING WATER FOR 12 MO (STUDY DURATION: 12 MO), Dose: 0, 3, 8 PPM IN DRINKING WATER FOR 12 MO (STUDY DURATION: 12 MO)): inactive; negative
carcinogen call (Species: Mouse, Strain/Sex: Charles River CD-1/Female (60/group), Route: Oral, Dose: 0, 20, 125, 500 ppm in diet for 2 yrs, Dose: 0, 20, 125, 500 ppm in diet for 2 yrs): inactive; negative (study details not given in source; purity 95.6%)
carcinogen call (Species: Mouse, Strain/Sex: Charles River CD-1/Male (60/group), Route: Oral, Dose: 0, 20, 125, 500 ppm in diet for 2 yrs, Dose: 0, 20, 125, 500 ppm in diet for 2 yrs): inactive; negative (study details not given in source; purity 95.6%)
carcinogen call (Species: Rat, Strain/Sex: Charles River CD/Female (60/group), Route: Oral, Dose: 0, 10, 20, 100 ppm in diet for 2 yrs, Dose: 0, 10, 20, 100 ppm in diet for 2 yrs): inactive; negative (study details not given in source; purity 95.6%)
carcinogen call (Species: Rat, Strain/Sex: Charles River CD/Male (60/group), Route: Oral, Dose: 0, 10, 20, 100 ppm in diet for 2 yrs, Dose: 0, 10, 20, 100 ppm in diet for 2 yrs): inactive; negative (study details not given in source; purity 95.6%)

O=S1(=O)CC=CC1
carcinogen call (Species: MOUSE, Strain/Sex: B6C3F1/FEMALE, Route: GAVAGE, Dose: 0, 384, 768 MG/KG, Dose: 0, 384, 768 MG/KG): inactive; negative
carcinogen call (Species: MOUSE, Strain/Sex: B6C3F1/MALE, Route: GAVAGE, Dose: 0, 311, 622 MG/KG, Dose: 0, 311, 622 MG/KG): inactive; negative
carcinogen call (Species: RAT, Strain/Sex: OSBORNE-MENDEL/FEMALE, Route: GAVAGE, Dose: 0, 120, 240 MG/KG, Dose: 0, 120, 240 MG/KG): inactive; negative
carcinogen call (Species: RAT, Strain/Sex: OSBORNE-MENDEL/MALE, Route: GAVAGE, Dose: 0, 197, 372 MG/KG, Dose: 0, 197, 372 MG/KG): inactive; negative

C=C1C/C(=C/C)C(=O)O[C@@H]2CCN3CC=C(COC(=O)[C@@]1(O)CO)[C@H]23
carcinogen call (Species: MOUSE, Strain/Sex: B6C3F1/FEMALE, Route: GAVAGE, Dose: 0, 3 MG/KG IN 0.1 M PHOSPHATE BUFFER 5 D/WK FOR 105 WK (STUDY DURATION: 105 WK), Tumor Site: Type of Lesion: LUNG (ALVEOLAR/BRONCHIOLAR): ADENOMA, ADENOMA OR CARCINOMA): active; positive
carcinogen call (Species: MOUSE, Strain/Sex: B6C3F1/MALE, Route: GAVAGE, Dose: 0, 0.1, 0.3, 1, 3 MG/KG IN 0.1 M PHOSPHATE BUFFER 5 D/WK FOR 105 WK (STUDY DURATION: 105 WK), Dose: 0, 0.1, 0.3, 1, 3 MG/KG IN 0.1 M PHOSPHATE BUFFER 5 D/WK FOR 105 WK (STUDY DURATION: 105 WK), Tumor Site: Type of Lesion: LIVER: HEMANGIOSARCOMA): active; positive
carcinogen call (Species: RAT, Strain/Sex: F344/FEMALE, Route: GAVAGE, Dose: 0, 0.01, 0.033, 0.1, 0.33 MG/KG IN 0.1 M PHOSPHATE BUFFER 5 D/WK FOR 105 WK (STUDY DURATION: 105 WK), Dose: 0, 0.01, 0.033, 0.1, 0.33 MG/KG IN 0.1 M PHOSPHATE BUFFER 5 D/WK FOR 105 WK (STUDY DURATION: 105 WK)): inactive; negative
carcinogen call (Species: RAT, Strain/Sex: F344/FEMALE, Route: GAVAGE, Dose: 0, 1 MG/KG IN 0.1 M PHOSPHATE BUFFER 5 D/WK FOR 97 WK (STUDY DURATION: 97 WK), Tumor Site: Type of Lesion: LIVER: HEMANGIOSARCOMA, HEPATOCELLULAR ADENOMA, ADENOMA OR CARCINOMA, HEMATOPOIETIC SYSTEM: MONONUCLEAR CELL LEUKEMIA): active; positive
carcinogen call (Species: RAT, Strain/Sex: F344/MALE, Route: GAVAGE, Dose: 0, 1 MG/KG IN 0.1 M PHOSPHATE BUFFER 5 D/WK FOR 72 WK (STUDY DURATION: 72 WK), Tumor Site: Type of Lesion: LIVER: HEMANGIOSARCOMA, HEPATOCELLULAR ADENOMA, HEMATOPOIETIC SYSTEM: MONONUCLEAR CELL LEUKEMIA): active; positive

CCOC(=O)NCCOc1ccc(Oc2ccccc2)cc1
carcinogen call (Species: Mouse, Strain/Sex: CD-1/Female (50/Group), Route: Oral, Dose: 0, 30, 110, 420 ppm of 96.6% fenoxycarb in diet for 80 wk, study duration 80 wk, Dose: 0, 30, 110, 420 ppm of 96.6% fenoxycarb in diet for 80 wk, study duration 80 wk): inactive; negative
carcinogen call (Species: Mouse, Strain/Sex: CD-1/Male (50/Group), Route: Oral, Dose: 0, 30, 110, 420 ppm of 96.6% fenoxycarb in diet for 80 wk, study duration 80 wk, Dose: 0, 30, 110, 420 ppm of 96.6% fenoxycarb in diet for 80 wk, study duration 80 wk, Tumor Site: Type of Lesion: Lung: alveolar/bronchial adenomas and carcinomas, significant at 420 ppm only): active; positive
carcinogen call (Species: Rat, Strain/Sex: Crl:CD(SD)BR/Female (50/Group), Route: Oral, Dose: 0, 200, 600, 1800 ppm of 96.6% fenoxycarb in diet for 104 wk, study duration 104 wk, Dose: 0, 200, 600, 1800 ppm of 96.6% fenoxycarb in diet for 104 wk, study duration 104 wk): inactive; negative
carcinogen call (Species: Rat, Strain/Sex: Crl:CD(SD)BR/Male (50/Group), Route: Oral, Dose: 0, 200, 600, 1800 ppm of 96.6% fenoxycarb in diet for 104 wk, study duration 104 wk, Dose: 0, 200, 600, 1800 ppm of 96.6% fenoxycarb in diet for 104 wk, study duration 104 wk): inactive; negative

Nc1cc(S(=O)(=O)[O-])cc2c1C(=O)/C(=N\Nc1ccc(-c3ccc(N/N=C4\C(=O)c5c(N)cc(S(=O)(=O)[O-])cc5C=C4S(=O)(=O)[O-])c(O)c3)cc1O)C(S(=O)(=O)[O-])=C2.[Cu].[Cu].[Na+].[Na+].[Na+].[Na+]
carcinogen call (Species: MOUSE, Strain/Sex: B6C3F1/FEMALE, Route: ORAL, Dose: 0, 1000, 3000, 10000 PPM IN DIET FOR 103 WK (STUDY DURATION: 106 WK), Dose: 0, 1000, 3000, 10000 PPM IN DIET FOR 103 WK (STUDY DURATION: 106 WK), Tumor Site: Type of Lesion: LIVER: HEPATOCELLULAR ADENOMA, HEPATOCELLULAR CARCINOMA): active; positive
carcinogen call (Species: MOUSE, Strain/Sex: B6C3F1/MALE, Route: ORAL, Dose: 0, 1000, 3000, 10000 PPM IN DIET FOR 103 WK (STUDY DURATION: 106 WK), Dose: 0, 1000, 3000, 10000 PPM IN DIET FOR 103 WK (STUDY DURATION: 106 WK), Tumor Site: Type of Lesion: LIVER: HEPATOCELLULAR ADENOMA, HEPATOCELLULAR CARCINOMA): active; positive
carcinogen call (Species: RAT, Strain/Sex: F344/FEMALE, Route: ORAL, Dose: 0, 1000, 3000, 10000 PPM IN DIET FOR 103 WK (STUDY DURATION: 105 WK), Dose: 0, 1000, 3000, 10000 PPM IN DIET FOR 103 WK (STUDY DURATION: 105 WK)): inactive; negative
carcinogen call (Species: RAT, Strain/Sex: F344/MALE, Route: ORAL, Dose: 0, 1000, 3000, 10000 PPM IN DIET FOR 103 WK (STUDY DURATION: 105 WK), Dose: 0, 1000, 3000, 10000 PPM IN DIET FOR 103 WK (STUDY DURATION: 105 WK), Tumor Site: Type of Lesion: PHARYNX: SQUAMOUS CELL PAPILLOMA OR SQUAMOUS CELL CARCINOMA): active; positive

Cc1cccc(Nc2cc(Cl)nc(SCC(=O)NCCO)n2)c1C
carcinogen call (Species: MOUSE, Strain/Sex: STRAIN-CS/FEMALE, Route: ORAL, Dose: 0.2% IN DIET FOR 19 MO, Tumor Site: Type of Lesion: LIVER: HEPATOCELLULAR CARCINOMA): active; positive
carcinogen call (Species: RAT, Strain/Sex: F344/MALE, Route: ORAL, Dose: 0.05, 0.2% IN DIET FOR 19 MO (LOW DOSE) OR 16 MO (HIGH DOSE), Tumor Site: Type of Lesion: LIVER: HEPATOCELLULAR CARCINOMA): active; positive

CC(=O)N[C@@H](C=O)[C@@H](O)[C@H](O)[C@H](O)CO
carcinogen call (Species: Rat, Strain/Sex: F344/Female, Route: Oral, Dose: 0, 2.5, 5% in diet for 104 wk): inactive; negative
carcinogen call (Species: Rat, Strain/Sex: F344/Male, Route: Oral, Dose: 0, 2.5, 5% in diet for 104 wk): inactive; negative

O=[N+]([O-])c1ccc2c(ccc3c4ccccc4ccc23)c1
carcinogen call (Species: MOUSE, Strain/Sex: ICR/FEMALE, Route: INTRAPERITONEAL, Dose: 0, 100 NMOL (TOTAL DOSE) ADMINISTERED IN 3 SUBDOSES OF 1/7, 2/7, AND 4/7 ON DAYS 1, 8 AND 15 OF LIFE, RESPECTIVELY (STUD): inactive; negative
carcinogen call (Species: MOUSE, Strain/Sex: ICR/MALE, Route: INTRAPERITONEAL, Dose: 0, 100 NMOL (TOTAL DOSE) ADMINISTERED IN 3 SUBDOSES OF 1/7, 2/7, AND 4/7 ON DAYS 1, 8 AND 15 OF LIFE, RESPECTIVELY (STUD): inactive; negative

Cc1ncc([N+](=O)[O-])n1CCO
carcinogen call (Species: MOUSE, Route: ORAL, Tumor Site: Type of Lesion: LUNG, LYMPHATIC SYSTEM: LYMPHOMA (NOS)): active; positive
carcinogen call (Species: RAT, Route: ORAL, Tumor Site: Type of Lesion: MAMMARY GLAND): active; positive
